The supplement of paper PMC10627819

Experiments:
[1] = system: S. pneumoniae D39V; assay: fitness (endpoint OD595 vs no drug) (fraction); higher = more growth
Outline: (§1)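 Bacterial fitness was scored as optical density at the stationary-phase transition relative to the robust mean of no-drug control wells. Scores are capped at 1. The growth data were OD595 readings every 30 min for 14 h at 37 °C, background-subtracted against the first reading, from 384-well plates inoculated at OD595 0.01 in TSB, LB Lennox or CY.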

[2] = system: B. subtilis 168; assay: as above
Outline: as §1

[3] = system: S. aureus DSM 20231; assay: Bliss interaction score (quartile over a dose matrix) (fitness difference); higher = more antagonism (negative = synergy)
Outline: (§2)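 Fitness was OD595 at entry into stationary phase divided by the plate's robust no-drug mean and capped at 1; single-drug fitness was inferred from combination data. The Bliss score is observed minus expected (product) fitness, summarised by quartiles over technical, biological and donor/recipient replicates.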

[4] = system: S. aureus Newman; assay: as above
Outline: as §2

[5] = system: S. pneumoniae D39V; assay: as above
Outline: as §2

[6] = system: B. subtilis 168; assay: as above
Outline: as §2
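For Bliss interaction score (quartile over a dose matrix) in this document: first quartile when negative (synergy) and third quartile when positive (antagonism).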

C[C@H]1c2cccc(O)c2C(=O)C2=C(O)[C@]3(O)C(=O)C(C(N)=O)=C(O)[C@@H](N(C)C)[C@@H]3[C@@H](O)[C@@H]21 [Doxycycline] + CN1C2=CC=CC=C2N=C3C1=CC=CC3=O [Pyocyanin]
fitness, [1], one replicate
Settings	first compound 0.003875 µg/mL	first compound 0.00775 µg/mL	first compound 0.031 µg/mL	first compound 0.062 µg/mL
partner 0.325 µg/mL	≥ 1	≥ 1	–	–
partner 0.65 µg/mL	≥ 1	0.997	–	–
partner 1.3 µg/mL	0.741	0.737	0.854	0.694

Settings	fitness
[1], first compound 0.0155 µg/mL, partner 0.325 µg/mL	≥ 1
[1], first compound 0.0155 µg/mL, partner 0.65 µg/mL	≥ 1
[1], first compound 0.0155 µg/mL, partner 1.3 µg/mL	0.823
[1], first compound 0.031 µg/mL, partner 0.325 µg/mL	0.941
[1], first compound 0.031 µg/mL, partner 0.65 µg/mL	0.97
[1], first compound 0.062 µg/mL, partner 0.325 µg/mL	0.857
[1], first compound 0.062 µg/mL, partner 0.65 µg/mL	0.87
[2], first compound 0.02 µg/mL, partner 1.25 µg/mL	0.875
[2], first compound 0.02 µg/mL, partner 2.5 µg/mL	0.828
[2], first compound 0.02 µg/mL, partner 5 µg/mL	0.737
[2], first compound 0.04 µg/mL, partner 1.25 µg/mL	0.775
[2], first compound 0.04 µg/mL, partner 2.5 µg/mL	0.692
[2], first compound 0.04 µg/mL, partner 5 µg/mL	0.605
[2], first compound 0.08 µg/mL, partner 1.25 µg/mL	0.613
[2], first compound 0.08 µg/mL, partner 2.5 µg/mL	0.559
[2], first compound 0.08 µg/mL, partner 5 µg/mL	0.36

Settings	Bliss interaction score
[3]	0.0677
[4]	-0.0231
[5]	0.127
[6]	0.092

C[C@H]1c2cccc(O)c2C(=O)C2=C(O)[C@]3(O)C(=O)C(C(N)=O)=C(O)[C@@H](N(C)C)[C@@H]3[C@@H](O)[C@@H]21 [Doxycycline] + CN(C)C(=O)C(CCN1CCC(O)(c2ccc(Cl)cc2)CC1)(c1ccccc1)c1ccccc1 [Loperamide]
fitness, [1], one replicate
Settings	first compound 0.003875 µg/mL	first compound 0.00775 µg/mL	first compound 0.0155 µg/mL	first compound 0.031 µg/mL	first compound 0.062 µg/mL
partner 20 µg/mL	≥ 1	≥ 1	–	0.976	0.836
partner 40 µg/mL	≥ 1	≥ 1	–	0.942	0.826
partner 68.57 µg/mL	–	–	0.858	0.875	0.966
partner 80 µg/mL	≥ 1	≥ 1	–	0.973	0.764

Settings	fitness
[1], first compound 0.0155 µg/mL, partner 17.14 µg/mL	0.874
[1], first compound 0.0155 µg/mL, partner 20 µg/mL	≥ 1
[1], first compound 0.0155 µg/mL, partner 34.28 µg/mL	0.861
[1], first compound 0.0155 µg/mL, partner 40 µg/mL	≥ 1
[1], first compound 0.0155 µg/mL, partner 80 µg/mL	≥ 1
[1], first compound 0.031 µg/mL, partner 17.14 µg/mL	0.939
[1], first compound 0.031 µg/mL, partner 34.28 µg/mL	0.932
[1], first compound 0.062 µg/mL, partner 17.14 µg/mL	0.864
[1], first compound 0.062 µg/mL, partner 34.28 µg/mL	0.895
[2], first compound 0.02 µg/mL, partner 25 µg/mL	0.544
[2], first compound 0.02 µg/mL, partner 50 µg/mL	0.0585
[2], first compound 0.02 µg/mL, partner 100 µg/mL	0.0358
[2], first compound 0.04 µg/mL, partner 25 µg/mL	0.0527
[2], first compound 0.04 µg/mL, partner 50 µg/mL	0.0434
[2], first compound 0.04 µg/mL, partner 100 µg/mL	0.0354
[2], first compound 0.08 µg/mL, partner 25 µg/mL	0.0276
[2], first compound 0.08 µg/mL, partner 50 µg/mL	0.0338
[2], first compound 0.08 µg/mL, partner 100 µg/mL	0.0354

Settings	Bliss interaction score
[3]	0.107
[4]	0.0172
[5]	0.193
[6]	-0.189

C[C@H]1c2cccc(O)c2C(=O)C2=C(O)[C@]3(O)C(=O)C(C(N)=O)=C(O)[C@@H](N(C)C)[C@@H]3[C@@H](O)[C@@H]21 [Doxycycline] + CN(C)c1cc(NC(=O)CNC(C)(C)C)c(O)c2c1C[C@H]1C[C@H]3[C@H](N(C)C)C(O)=C(C(N)=O)C(=O)[C@@]3(O)C(O)=C1C2=O [Tigecycline]
fitness, one replicate
Settings	partner 0.125 µg/mL	partner 0.25 µg/mL	partner 0.5 µg/mL	partner 0.65 µg/mL	partner 1.3 µg/mL	partner 2.6 µg/mL
[1], first compound 0.003875 µg/mL	–	–	–	≥ 1	≥ 1	≥ 1
[1], first compound 0.00775 µg/mL	–	–	–	1	0.963	0.954
[2], first compound 0.02 µg/mL	0.99	0.873	0.962	–	–	–
[2], first compound 0.04 µg/mL	0.994	0.849	0.895	–	–	–
[2], first compound 0.08 µg/mL	0.761	0.611	0.697	–	–	–

Settings	fitness
[1], first compound 0.0155 µg/mL, partner 0.65 µg/mL	0.969
[1], first compound 0.0155 µg/mL, partner 1.3 µg/mL	0.922
[1], first compound 0.0155 µg/mL, partner 2.6 µg/mL	0.903
[1], first compound 0.031 µg/mL, partner 0.65 µg/mL	0.902
[1], first compound 0.031 µg/mL, partner 1.3 µg/mL	0.831
[1], first compound 0.031 µg/mL, partner 2.6 µg/mL	0.796
[1], first compound 0.062 µg/mL, partner 0.65 µg/mL	0.885
[1], first compound 0.062 µg/mL, partner 1.3 µg/mL	0.773
[1], first compound 0.062 µg/mL, partner 2.6 µg/mL	0.732
[2], first compound 0.02 µg/mL, partner 0.039 µg/mL	0.94
[2], first compound 0.02 µg/mL, partner 0.078 µg/mL	0.818
[2], first compound 0.02 µg/mL, partner 0.156 µg/mL	0.85
[2], first compound 0.04 µg/mL, partner 0.039 µg/mL	0.824
[2], first compound 0.04 µg/mL, partner 0.078 µg/mL	0.773
[2], first compound 0.04 µg/mL, partner 0.156 µg/mL	0.792
[2], first compound 0.08 µg/mL, partner 0.078 µg/mL	0.619
[2], first compound 0.08 µg/mL, partner 0.156 µg/mL	0.635

Settings	Bliss interaction score
[3]	-0.104
[4]	-0.0649
[5]	0.0303
[6]	0.0765

C[C@H]1c2cccc(O)c2C(=O)C2=C(O)[C@]3(O)C(=O)C(C(N)=O)=C(O)[C@@H](N(C)C)[C@@H]3[C@@H](O)[C@@H]21 [Doxycycline] + CN(N=O)C(=O)N[C@@H](C=O)[C@@H](O)[C@H](O)[C@H](O)CO [Streptozotocin]
fitness, [1], one replicate
Settings	partner 1.2 µg/mL	partner 2.4 µg/mL	partner 4.8 µg/mL
first compound 0.003875 µg/mL	0.989	0.971	0.984
first compound 0.00775 µg/mL	0.926	0.913	0.933

Settings	fitness
[1], first compound 0.0155 µg/mL, partner 1.2 µg/mL	0.919
[1], first compound 0.0155 µg/mL, partner 2.4 µg/mL	0.896
[1], first compound 0.0155 µg/mL, partner 4.8 µg/mL	0.914
[1], first compound 0.031 µg/mL, partner 1.2 µg/mL	0.837
[1], first compound 0.031 µg/mL, partner 2.4 µg/mL	0.847
[1], first compound 0.031 µg/mL, partner 4.8 µg/mL	0.822
[1], first compound 0.062 µg/mL, partner 1.2 µg/mL	0.754
[1], first compound 0.062 µg/mL, partner 2.4 µg/mL	0.761
[1], first compound 0.062 µg/mL, partner 4.8 µg/mL	0.71
[2], first compound 0.02 µg/mL, partner 0.15 µg/mL	0.917
[2], first compound 0.02 µg/mL, partner 0.3 µg/mL	0.97
[2], first compound 0.02 µg/mL, partner 0.6 µg/mL	0.901
[2], first compound 0.04 µg/mL, partner 0.15 µg/mL	0.773
[2], first compound 0.04 µg/mL, partner 0.3 µg/mL	0.789
[2], first compound 0.04 µg/mL, partner 0.6 µg/mL	0.786
[2], first compound 0.08 µg/mL, partner 0.3 µg/mL	0.538
[2], first compound 0.08 µg/mL, partner 0.6 µg/mL	0.531

Settings	Bliss interaction score
[3]	0.0373
[4]	0.0413
[5]	-0.0474
[6]	0.0094
